In US20230234943A1, “TREX1 INHIBITORS AND USES THEREOF” (Tempest Therapeutics, Inc., priority 2020, published 2023) one finds IC50 data, which are given here for 28 compounds.

The target of the assay is T1, Human TREX1 enzyme (amino acids 1-242) (Homo sapiens, UniProt Q9NSU2).
T1 construct: Human TREX1 enzyme (amino acids 1-242)
T1 sequence (Q9NSU2 1-242): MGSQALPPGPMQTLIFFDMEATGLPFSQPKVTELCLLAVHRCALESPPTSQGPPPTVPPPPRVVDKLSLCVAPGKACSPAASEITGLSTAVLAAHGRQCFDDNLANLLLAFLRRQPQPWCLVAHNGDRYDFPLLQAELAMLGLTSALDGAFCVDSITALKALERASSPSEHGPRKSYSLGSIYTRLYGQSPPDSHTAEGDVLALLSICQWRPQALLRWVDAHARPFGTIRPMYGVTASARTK
The assay is described as follows: Human TREX1 enzymatic assay with dsDNA native oligonucleotide (Picogreen fluorescence). The assay is classed as biochemical. Conditions: 2 mM dithiothreitol in assay buffer; 50 nM dsDNA oligonucleotide; 30 min preincubation at 25° C.; read-out: TREX1/Human + DTT IC50 AVG. A digest of the protocol: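 Remaining dsDNA quantified by Picogreen fluorescence after EDTA quench, with no-enzyme and DMSO wells as controls. Reactions used 50 nM annealed oligonucleotide for 5–15 min at 25 °C, after a 30 min compound–enzyme preincubation (0.8–0.16 nM TREX1; 2% DMSO; pH 7.7 Tris, 5 mM MgCl2).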
For the compound `COc1cc(-c2nc3cc(C4CCN(C)CC4)ccc3[nH]2)cc(O)c1O` [Example 68, 3-methoxy-5-(5-(1-methylpiperidin-4-yl)-1H-benzo[d]imidazol-2-yl)benzene-1,2-diol], the IC50 is more than 100 µM.
Then `COc1cc(-c2nc3cc(-c4ccccc4)ccc3[nH]2)cc(O)c1O` [Example 69, 3-methoxy-5-(5-phenyl-1H-benzo[d]imidazol-2-yl)benzene-1,2-diol], with more than 100 µM; and `COc1cc(-c2nc3cc(N4CCOCC4)cnc3[nH]2)cc(O)c1O` [Example 70, 3-methoxy-5-(6-morpholino-3H-imidazo[4,5-b]pyridin-2-yl)benzene-1,2-diol], with more than 100 µM.
Then `O=C(O)c1cc(-c2nc3ccncc3[nH]2)ccc1O` [Example 71, 2-hydroxy-5-(3H-imidazo[4,5-c]pyridin-2-yl)benzoic acid], with 10 to 100 µM; and `COc1cc(-c2nc3cc(N4CCN(C(C)C)CC4)ccc3[nH]2)cc(O)c1O` [Example 72, 5-(5-(4-isopropylpiperazin-1-yl)-1H-benzo[d]imidazol-2-yl)-3-methoxybenzene-1,2-diol], with 10 to 100 µM.
Then `COc1cc(-c2nc3cc(N4CCN(c5ccccn5)CC4)ccc3[nH]2)cc(O)c1O` [Example 73, 3-methoxy-5-(5-(4-(pyridin-2-yl)piperazin-1-yl)-1H-benzo[d]imidazol-2-yl)benzene-1,2-diol], with more than 100 µM.
Consider `COc1cc(-c2nc3cc(N4CCC(N(C)C)CC4)ccc3[nH]2)cc(O)c1O` [Example 74, 5-(5-(4-(dimethylamino)piperidin-1-yl)-1H-benzo[d]imidazol-2-yl)-3-methoxybenzene-1,2-diol], for which the IC50 was in the range of 10 to 100 µM.
`COc1cc(-c2nc3cc(C4CCCCC4)ccc3[nH]2)cc(O)c1O` [Example 75, 5-(5-cyclohexyl-1H-benzo[d]imidazol-2-yl)-3-methoxybenzene-1,2-diol]: the IC50 is more than 100 µM.
Then `COc1cc(-c2nc3c(N4CCOCC4)cncc3[nH]2)cc(O)c1O` [Example 76, 3-methoxy-5-(7-morpholino-3H-imidazo[4,5-c]pyridin-2-yl)benzene-1,2-diol], with 10 to 100 µM.
Next, `COc1cc(-c2nc3ccncc3s2)cc(O)c1O` [Example 77, 3-methoxy-5-(thiazolo[5,4-c]pyridin-2-yl)benzene-1,2-diol]: 10 to 100 µM.
Regarding `COc1cc(-c2nc3ccncc3[nH]2)c(C)c(O)c1O` [Example 78, 4-(3H-imidazo[4,5-c]pyridin-2-yl)-6-methoxy-3-methylbenzene-1,2-diol], the IC50 fell in the range of 10 to 100 µM.
Next, `COc1cc(-c2nc3ccncc3[nH]2)c(-c2cccnc2)c(O)c1O` [Example 79, 4-(3H-imidazo[4,5-c]pyridin-2-yl)-6-methoxy-3-(pyridin-3-yl)benzene-1,2-diol]: more than 100 µM.
Then `COc1cc(-c2nc3nc(N4CCOCC4)ncc3[nH]2)cc(O)c1O` [Example 80, 3-methoxy-5-(2-morpholino-7H-purin-8-yl)benzene-1,2-diol], with more than 100 µM; and `COc1cc(-c2nc3cc(N4CCN(C(=O)c5ccc6ccccc6c5)CC4)ccc3[nH]2)cc(O)c1O` [Example 81, (4-(2-(3,4-dihydroxy-5-methoxyphenyl)-1H-benzo[d]imidazol-5-yl)piperazin-1-yl)(naphthalen-2-yl)methanone], with more than 100 µM.
Next, `COc1cc(-c2nc3cc(N4CCN(Cc5ccc6ccccc6c5)CC4)ccc3[nH]2)cc(O)c1O` [Example 82, 3-methoxy-5-(5-(4-(naphthalen-2-ylmethyl)piperazin-1-yl)-1H-benzo[d]imidazol-2-yl)benzene-1,2-diol]: more than 100 µM; `COc1cc(-c2nc3ccc(N4CCOCC4)cc3n2C2CCOC2)cc(O)c1O` (stereo not shown) [Example 83, 3-methoxy-5-(6-morpholino-1-(tetrahydrofuran-3-yl)-1H-benzo[d]imidazol-2-yl)benzene-1,2-diol]: 10 to 100 µM.
On to `COc1cc(-c2nc3cc(N4CCN(C(=O)c5ccc(Cl)cc5)CC4)ccc3[nH]2)cc(O)c1O` [Example 84, (4-chlorophenyl)(4-(2-(3,4-dihydroxy-5-methoxyphenyl)-1H-benzo[d]imidazol-5-yl)piperazin-1-yl)methanone], for which the IC50 is more than 100 µM.
Then `COc1ccc(C(=O)N2CCN(c3ccc4[nH]c(-c5cc(O)c(O)c(OC)c5)nc4c3)CC2)cc1` [Example 85, (4-(2-(3,4-dihydroxy-5-methoxyphenyl)-1H-benzo[d]imidazol-5-yl)piperazin-1-yl)(4-methoxyphenyl)methanone], with 1 to 10 µM.
`COc1ccccc1C(=O)N1CCN(c2ccc3[nH]c(-c4cc(O)c(O)c(OC)c4)nc3c2)CC1` [Example 86, (4-(2-(3,4-dihydroxy-5-methoxyphenyl)-1H-benzo[d]imidazol-5-yl)piperazin-1-yl)(2-methoxyphenyl)methanone]: the IC50 was 1 to 10 µM.
Next, `COc1cc(-c2nc3cc(N4CCN(S(=O)(=O)c5ccccc5)CC4)ccc3[nH]2)cc(O)c1O` [Example 87, 3-methoxy-5-(5-(4-(phenylsulfonyl)piperazin-1-yl)-1H-benzo[d]imidazol-2-yl)benzene-1,2-diol]: more than 100 µM; `C#CCCC1(CCC(=O)N2CCN(c3ccc4[nH]c(-c5cc(O)c(O)c(OC)c5)nc4c3)CC2)N=N1` [Example 88, 3-(3-(but-3-yn-1-yl)-3H-diazirin-3-yl)-1-(4-(2-(3,4-dihydroxy-5-methoxyphenyl)-1H-benzo[d]imidazol-5-yl)piperazin-1-yl)propan-1-one]: more than 100 µM; `COc1cc(-c2nc3ccccc3n2C2COC2)cc(C(=O)O)c1O` [Example 89, 2-hydroxy-3-methoxy-5-(1-(oxetan-3-yl)-1H-benzo[d]imidazol-2-yl)benzoic acid]: more than 100 µM.
Take `O=C(O)c1c(O)cc(-c2nc3ccncc3[nH]2)cc1F` [Example 90, 2-fluoro-6-hydroxy-4-(3H-imidazo[4,5-c]pyridin-2-yl)benzoic acid]: the IC50 is 10 to 100 µM.
Next, `COc1cc(-c2nc3cc(N4CCNC(C)(C)C4)ccc3[nH]2)cc(O)c1O` [Example 91, 5-(5-(3,3-dimethylpiperazin-1-yl)-1H-benzo[d]imidazol-2-yl)-3-methoxybenzene-1,2-diol]: 10 to 100 µM; `COc1cc(-c2nc3cc(N(C)C)ccc3[nH]2)cc(O)c1O` [Example 92, 5-(5-(dimethylamino)-1H-benzo[d]imidazol-2-yl)-3-methoxybenzene-1,2-diol]: more than 100 µM; `COc1cc(-c2nc3ccncc3n2C)c(-c2cccnc2)c(O)c1O` [Example 93, 6-methoxy-4-(3-methyl-3H-imidazo[4,5-c]pyridin-2-yl)-3-(pyridin-3-yl)benzene-1,2-diol]: more than 100 µM.
Then `COc1cc(-c2nc3nc(N4CCOCC4)ccc3[nH]2)cc(O)c1O` [Example 94, 3-methoxy-5-(5-morpholino-1H-imidazo[4,5-b]pyridin-2-yl)benzene-1,2-diol], with 10 to 100 µM; and `COc1cc(-c2nc3cc(N4CCOCC4)ccc3n2C2CCOC2)cc(O)c1O` (stereo not shown) [Example 95, 3-methoxy-5-(5-morpholino-1-(tetrahydrofuran-3-yl)-1H-benzo[d]imidazol-2-yl)benzene-1,2-diol], with 10 to 100 µM.
